This passage reports AC50 and IC50 results from ChEMBL document CHEMBL1201862, “PubChem BioAssay data set” (2004).

Active and inactive are the calls of the source.

In one test the target is Paired box protein Pax-8 (Homo sapiens, UniProt Q06710). Put plainly: PAX8 transcriptional activity inhibition in RMG-I – RMG-I cells, luciferase, cherry-pick, dose response (AID 687027).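 Also: luciferase reporter driven by Pax8 target thyroperoxidase promoter measured by SteadyGlo luminescence.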 In kind it is functional, cell-based.
A short description of test [1]: COV362 cell viability loss – plate reader, dry powder, SA12, cytotoxicity control for PAX8 inhibitor project, dose response (AID 743144). It counts as functional, cell-based.
The nature of test [2]: toxicity toward immortalized ovarian surface epithelium – cell-based, plate reader, dry powder samples, cytotoxicity control for PAX8 inhibitor project, dose response (AID 743045). It counts as functional.
Test [3] in a line: OVCAR-3 cell viability loss – plate reader, dry powder samples, PAX8 inhibitor project, dose response (AID 743044). It counts as functional, cell-based.
Test [4] can be described thus: PAX5 cellular inhibition readout – cell-based, plate reader, dry powder samples, selectivity assay for PAX8 inhibitor project, dose response (AID 743047).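 Also: HEK293 cells carrying a Pax5 driven CD19 promoter luciferase reporter; potency of inhibitors that lower reporter luminescence.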 In kind it is functional.
A short description of test [5]: IGROV1 cell killing – plate reader, dry powder samples, PAX8 inhibitor project, dose response (AID 743043). In kind it is functional, cell-based. The settings on record: IGROV-1.
Test [6] is described as follows: OVCAR4 cell viability loss – plate reader, dry powder, SA11, cytotoxicity control for PAX8 inhibitor project, dose response (AID 743150). As to conditions: OVCAR-4. It counts as functional, cell-based.
Test [7] in a line: COV434 cell viability loss – plate reader, dry powder, SA7, cytotoxicity control for PAX8 inhibitor project, dose response (AID 743145). It counts as functional, cell-based.
Test [8] is described as follows: OV-90 cell viability loss – plate reader, dry powder, SA8, PAX8 inhibitor project, dose response (AID 743149). It counts as functional, cell-based.
Test [9] is described as follows: PAX8-dependent cell viability loss – plate reader, dry powder, dose response (AID 743049). It counts as functional, cell-based.
Test [10] in a line: Luminescence Cell-Based Dose Retest to Confirm Inhibitors of Cancer Stem Cells. [Related pubchem assays (depositor defined):AID2717, AID2721]. In kind it is functional. The settings on record: Homo sapiens.
A short description of test [11]: rise of 2N DNA cells, HeLa – IC50, dose response (AID 1117349). It counts as functional, cell-based.
Test [12] can be described thus: CellTiter-Glo luminescence survival assay, SW480 colon tumor line, concentration-response curve, half-maximal inhibitory concentration (AID 1117338). In kind it is functional. For orientation: ATP-based viability assays read luminescence as a measure of living cells.
Test [13] in a line: RKO cell viability reduction, dose response, CellTiter-Glo luminescence (AID 1117322). It counts as functional.
A short description of test [14]: cytotoxicity toward HCT116 cells – cell-based, CellTiter-Glo luminescence, IC50, dose response (AID 1117332). In kind it is functional. As to conditions: HCT-116.
Test [15] can be described thus: SNU-C1 cell viability reduction, dose response, CellTiter-Glo luminescence (AID 1117323). In kind it is functional, cell-based.
A short description of test [16]: cytotoxicity toward Colo320 cells – cell-based, CellTiter-Glo luminescence, IC50, dose response (AID 1117334). As to conditions: COLO 320. In kind it is functional.
Test [17] in a line: rise of 4N DNA cells, HeLa – IC50, dose response (AID 1117351). It counts as functional, cell-based.
Test [18] can be described thus: cytotoxicity toward HT-29 cells – cell-based, CellTiter-Glo luminescence, IC50, dose response (AID 1117330). In kind it is functional.
A short description of test [19]: Reduced DLD-1 viability, concentration-response, CellTiter-Glo luminescence (AID 1117352). In kind it is functional.
Test [20] in a line: HCT116 cell viability decrease, GSK3B pretreatment – CellTiter-Glo, IC50, dose response (AID 1117339). As to conditions: HCT-116. In kind it is functional.
A short description of test [21]: HepG2 hepatoma cell viability loss – plate reader, dry powder, cytotoxicity control, dose response (AID 651947). In kind it is functional, cell-based.
Test [22] is described as follows: inhibitors of TRPM1-promoter reporter in SK-MEL-5 – cell-based, luciferase, dry powder, set 9, MITF inhibitor project, dose response (AID 651588). It counts as functional.
Test [23] is described as follows: cytotoxicity in MITF-independent A375 cells – cell-based, CellTiter-Glo luminescence, dry powder, set 4, counter-screen for MITF inhibitor project, dose response (AID 624364).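 Also: A375 melanoma cells are MITF independent so this is a counter screen.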 As to conditions: A-375. In kind it is functional.
The nature of test [24]: viability loss in MITF-independent A375 cells – cell-based, CellTiter-Glo luminescence, dry powder, set 7, counter-screen for MITF inhibitor project, dose response (AID 624490). It counts as functional. As to conditions: A-375.
Test [25] is described as follows: MITF Orthogonal Assay: MALME3 CTG Assay Measured in Cell-Based System Using Plate Reader - 2084-04_Inhibitor_Dose_DryPowder_Activity_Set6. It counts as functional. The settings on record: MALME-3.
The nature of test [26]: growth inhibition of SK-MEL-5 melanoma cells – cell-based, CellTiter-Glo luminescence, dry powder, set 8, orthogonal assay for MITF inhibitor project, dose response (AID 651586). It counts as functional.
The nature of test [27]: growth inhibition of MALME3 cells – cell-based, CellTiter-Glo luminescence, dry powder, set 5, orthogonal assay for MITF inhibitor project, dose response (AID 651584). In kind it is functional. As to conditions: MALME-3.
Test [28] in a line: cytotoxicity in melanoma parental cells – cell-based, CellTiter-Glo, dry powder, set 6, MITF inhibitor project, dose response (AID 624429). In kind it is functional. The settings on record: SK-MEL-5.
A short description of test [29]: MITF Orthogonal Assay: SK-MEL-5 CTG Assay Measured in Cell-Based System Using Plate Reader - 2084-02_Inhibitor_Dose_DryPowder_Activity_Set5. It counts as functional.
The nature of test [30]: viability loss in MITF-independent A375 cells – cell-based, CellTiter-Glo luminescence, dry powder, set 6, counter-screen for MITF inhibitor project, dose response (AID 624488). It counts as functional. As to conditions: A-375.
Test [31] is described as follows: cytotoxicity in MITF-independent A375 cells – cell-based, CellTiter-Glo luminescence, dry powder, set 9, counter-screen for MITF modulator project, dose response (AID 651591). It counts as functional. The settings on record: A-375.
Test [32] can be described thus: MITF Measured in Cell-Based System Using Plate Reader - 2084-01_Inhibitor_Dose_DryPowder_Activity_Set6. It counts as functional.
Test [33] is described as follows: viability loss in MITF-independent A375 cells – cell-based, CellTiter-Glo luminescence, dry powder, set 2, counter-screen for MITF inhibitor project, dose response (AID 624489).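 Also: actives are compounds lowering A375 viability meaning general cytotoxicity.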 The settings on record: A-375. In kind it is functional.
The nature of test [34]: MITF Measured in Cell-Based System Using Plate Reader - 2084-01_Inhibitor_Dose_DryPowder_Activity_Set7. It counts as functional.
Test [35] in a line: melanocyte viability loss, MITF-dependent cells, cell-based, plate reader, dry powder, cytotoxicity control, dose response (AID 651920). It counts as functional.
A short description of test [36]: viability loss in A549 lung cells – cell-based, 24 h, CellTiter-Glo luminescence, cherry-picks, cytotoxicity control, dose response (AID 1053115). It counts as functional. The settings on record: A549, 24 h.
A further test concerns the target Phospholipase D2 (Homo sapiens, UniProt O14939). The experiment in a line: PLD2 Cellular Concentration Response Study. In kind it is functional.
In the next test the target is Phospholipase D1 (Homo sapiens, UniProt Q13393). The experiment in a line: PLD1 Cellular Concentration Response Study. It counts as functional.
In test [37] the target is G-protein coupled receptor 183 (Homo sapiens, UniProt P32249). Put plainly: SAR confirmation of small molecule antagonists of the EBI2 receptor via a luminescent beta-arrestin assa. In kind it is functional.
Chain of G-protein coupled receptor 183 (P32249 whole entry): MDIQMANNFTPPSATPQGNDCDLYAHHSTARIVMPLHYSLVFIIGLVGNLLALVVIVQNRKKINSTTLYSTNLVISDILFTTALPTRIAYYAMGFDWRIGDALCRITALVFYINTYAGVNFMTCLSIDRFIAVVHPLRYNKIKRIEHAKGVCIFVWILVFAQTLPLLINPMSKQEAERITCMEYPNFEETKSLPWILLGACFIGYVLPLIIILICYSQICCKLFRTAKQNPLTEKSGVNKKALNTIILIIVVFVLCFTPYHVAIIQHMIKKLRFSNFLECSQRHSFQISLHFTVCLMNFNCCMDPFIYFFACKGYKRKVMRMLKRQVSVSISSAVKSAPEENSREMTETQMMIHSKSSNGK

Chain of Phospholipase D2 (O14939 whole entry): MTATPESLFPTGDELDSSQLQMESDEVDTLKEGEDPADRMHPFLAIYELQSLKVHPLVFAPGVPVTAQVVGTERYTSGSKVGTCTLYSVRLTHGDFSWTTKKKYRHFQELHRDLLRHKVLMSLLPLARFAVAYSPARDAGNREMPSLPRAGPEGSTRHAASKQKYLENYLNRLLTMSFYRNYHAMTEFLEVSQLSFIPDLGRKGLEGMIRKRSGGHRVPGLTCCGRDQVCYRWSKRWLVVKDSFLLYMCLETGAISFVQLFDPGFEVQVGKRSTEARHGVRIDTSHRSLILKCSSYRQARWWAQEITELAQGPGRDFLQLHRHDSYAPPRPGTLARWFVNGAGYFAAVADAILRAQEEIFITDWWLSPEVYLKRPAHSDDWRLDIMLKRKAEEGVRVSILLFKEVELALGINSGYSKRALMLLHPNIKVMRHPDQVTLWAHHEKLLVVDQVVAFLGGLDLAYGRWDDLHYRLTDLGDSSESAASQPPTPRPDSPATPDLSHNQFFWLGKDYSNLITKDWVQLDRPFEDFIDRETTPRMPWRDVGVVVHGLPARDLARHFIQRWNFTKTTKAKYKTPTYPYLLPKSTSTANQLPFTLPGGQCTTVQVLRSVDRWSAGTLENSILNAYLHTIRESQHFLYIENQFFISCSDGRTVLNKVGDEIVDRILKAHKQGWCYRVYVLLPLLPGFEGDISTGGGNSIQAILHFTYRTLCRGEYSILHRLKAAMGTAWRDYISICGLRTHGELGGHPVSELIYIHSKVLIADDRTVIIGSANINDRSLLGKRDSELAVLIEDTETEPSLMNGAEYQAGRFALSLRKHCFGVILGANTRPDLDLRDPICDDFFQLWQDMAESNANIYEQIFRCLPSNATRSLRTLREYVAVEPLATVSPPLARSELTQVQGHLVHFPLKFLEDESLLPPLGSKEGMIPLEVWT
Chain of Paired box protein Pax-8 (Q06710 whole entry): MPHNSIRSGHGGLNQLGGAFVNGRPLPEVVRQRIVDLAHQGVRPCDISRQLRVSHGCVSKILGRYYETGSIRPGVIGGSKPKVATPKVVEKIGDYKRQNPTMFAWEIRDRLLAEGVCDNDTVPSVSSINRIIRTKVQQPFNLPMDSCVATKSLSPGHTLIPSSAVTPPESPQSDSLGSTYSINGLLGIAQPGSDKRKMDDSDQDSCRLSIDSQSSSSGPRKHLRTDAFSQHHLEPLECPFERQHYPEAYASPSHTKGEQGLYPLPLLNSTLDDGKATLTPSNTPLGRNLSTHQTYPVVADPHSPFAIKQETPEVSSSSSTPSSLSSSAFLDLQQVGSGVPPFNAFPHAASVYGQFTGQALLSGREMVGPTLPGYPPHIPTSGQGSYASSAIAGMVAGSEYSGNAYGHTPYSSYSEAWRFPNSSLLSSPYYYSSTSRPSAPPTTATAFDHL
Chain of Phospholipase D1 (Q13393 whole entry): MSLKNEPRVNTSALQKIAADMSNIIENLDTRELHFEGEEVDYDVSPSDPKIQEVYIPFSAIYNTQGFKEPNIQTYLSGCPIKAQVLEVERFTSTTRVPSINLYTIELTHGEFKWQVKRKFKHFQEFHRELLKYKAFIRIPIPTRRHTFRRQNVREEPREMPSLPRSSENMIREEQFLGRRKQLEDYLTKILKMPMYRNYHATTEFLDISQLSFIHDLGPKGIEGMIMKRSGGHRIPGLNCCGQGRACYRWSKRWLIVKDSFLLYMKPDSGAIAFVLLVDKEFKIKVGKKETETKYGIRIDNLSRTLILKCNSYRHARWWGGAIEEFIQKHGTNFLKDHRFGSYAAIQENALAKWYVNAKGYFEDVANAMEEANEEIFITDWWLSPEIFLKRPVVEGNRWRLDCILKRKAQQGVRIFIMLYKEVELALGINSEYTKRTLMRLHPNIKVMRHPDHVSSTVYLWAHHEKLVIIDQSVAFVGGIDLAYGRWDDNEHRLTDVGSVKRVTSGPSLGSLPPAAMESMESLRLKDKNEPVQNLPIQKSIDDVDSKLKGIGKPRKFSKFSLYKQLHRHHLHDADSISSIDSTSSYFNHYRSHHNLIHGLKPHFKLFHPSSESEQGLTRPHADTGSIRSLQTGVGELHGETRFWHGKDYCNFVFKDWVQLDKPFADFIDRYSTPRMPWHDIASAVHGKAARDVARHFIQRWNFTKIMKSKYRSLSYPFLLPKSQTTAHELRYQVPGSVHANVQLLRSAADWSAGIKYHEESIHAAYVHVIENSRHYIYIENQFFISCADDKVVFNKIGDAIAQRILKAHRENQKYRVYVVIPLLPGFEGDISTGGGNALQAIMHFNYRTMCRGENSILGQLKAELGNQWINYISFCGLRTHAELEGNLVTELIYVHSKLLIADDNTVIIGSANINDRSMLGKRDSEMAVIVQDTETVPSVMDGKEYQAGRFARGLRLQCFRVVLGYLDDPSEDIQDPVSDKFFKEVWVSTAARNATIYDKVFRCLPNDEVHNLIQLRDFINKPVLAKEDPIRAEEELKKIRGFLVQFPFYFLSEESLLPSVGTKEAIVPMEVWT

Consider `NS(=O)(=O)c1ccc(CCN2C(=O)/C(=C\c3ccc(Cl)cc3)SC2=S)cc1`, for which the AC50 was 3.81 µM (active) at Paired box protein Pax-8; 24.9 µM (active) in test [1]; 79.8 µM (active) in test [2]; 22.3 µM (active) in test [3]; 67.7 µM (active) in [4]; 30.4 µM (active) in test [5]. In addition, the AC50 is 48.2 µM (active) in test [6], 29.8 µM (active) in test [7], 26.2 µM (active) in test [8] and 15.5 µM (active) in test [9].

In the case of `O=C1[C@H]2CCCC[C@H]2C(=O)N1CCCCN1CCN(c2nsc3ccccc23)CC1`, in test [10], the AC50 was 3.47 µM (active). For the same molecule, the IC50 in [11] was > 10 µM (inactive); in test [12], 5.91 µM (inactive); in test [13], 0.546 µM (active); in [14] it was 2.06 µM (active); in [15], 9.37 µM (inactive); in test [16], 13.2 µM (inactive). The IC50 is > 10 µM (inactive) in [17], 2.01 µM (active) in test [18], 8.24 µM (inactive) in test [19] and 1.67 µM (active) in [20].

Take `Cc1ccccc1CSc1nnc(-c2ccccc2)o1`: the AC50 in test [21] was 0.308 µM (active).

In the case of `COC1=C(NS(=O)(=O)c2ccccc2)C(=O)c2ccccc2C1=O`, the AC50 is 18.9 µM (active) in test [22]; > 70 µM (inactive) in [23]; > 70 µM (inactive) in [24]; 31.8 µM (active) in test [25]; 14.5 µM (active) in test [26]; 31.8 µM (active) in [27]. For the same molecule, the AC50 in test [28] was 16.4 µM (active); in [29], 9.13 µM (active); in [30], > 70 µM (inactive); in test [31] it was > 70 µM (inactive); in test [32] it was 6.32 µM (active); in test [33], > 70 µM (inactive). Besides, the figures for the AC50 in test [34] and in [35] were 7.44 µM (active) and 27.5 µM (active), respectively.

As to `OC[C@H]1Nc2ccc(-c3cccc(F)c3)cc2[C@H]2[C@@H]1CCN2Cc1ccc(F)cc1`, the concentration at half-maximal activity (AC50) in test [36] is 45.3 µM (active).

As for `O=C(NCCN1CCC2(CC1)C(=O)NCN2Cc1ccncc1)c1ccc2ccccc2c1`, the IC50 was 0.85 µM (active) at Phospholipase D2 and 20 µM (active) at Phospholipase D1.

For `O=C(/C=C/c1ccccc1)N1CCN(Cc2ccc(Cl)cc2)CC1`, in test [37], the IC50 is 0.0984 µM (active).

One may read the AC50 as the midpoint of the concentration-response curve, whichever way the signal moves. For orientation: IC50 means the point on the concentration scale where inhibition reaches its midpoint.
